# “And” between values parts separate entries of the source, which are not always exact repeats. Equal values may be shown once. Read-outs that look alike come from different tables or passages of the source. No end group written: not given here. *: point of attachment. AMC = Cc1cc(=O)oc2cc(N*)ccc12
# What was measured:
# D. immitis L3/L4 ES = type: biochemical, Dirofilaria immitis; conditions: pH 7.5
# [1] = test system: phenylalanine decarboxylase (Phe-DC); assay: Substrate specificity assay on commercially prepared Phe-DC; type: biochemical; conditions: as Example 1
# [2] = biological target: T1, tyrosine decarboxylase (Tyr-DC) (Enterococcus faecalis, UniProt P0DTQ4); assay: Substrate specificity assay on commercially prepared Tyr-DC; type: biochemical; conditions: as Example 1
# T1 sequence (P0DTQ4 1-620): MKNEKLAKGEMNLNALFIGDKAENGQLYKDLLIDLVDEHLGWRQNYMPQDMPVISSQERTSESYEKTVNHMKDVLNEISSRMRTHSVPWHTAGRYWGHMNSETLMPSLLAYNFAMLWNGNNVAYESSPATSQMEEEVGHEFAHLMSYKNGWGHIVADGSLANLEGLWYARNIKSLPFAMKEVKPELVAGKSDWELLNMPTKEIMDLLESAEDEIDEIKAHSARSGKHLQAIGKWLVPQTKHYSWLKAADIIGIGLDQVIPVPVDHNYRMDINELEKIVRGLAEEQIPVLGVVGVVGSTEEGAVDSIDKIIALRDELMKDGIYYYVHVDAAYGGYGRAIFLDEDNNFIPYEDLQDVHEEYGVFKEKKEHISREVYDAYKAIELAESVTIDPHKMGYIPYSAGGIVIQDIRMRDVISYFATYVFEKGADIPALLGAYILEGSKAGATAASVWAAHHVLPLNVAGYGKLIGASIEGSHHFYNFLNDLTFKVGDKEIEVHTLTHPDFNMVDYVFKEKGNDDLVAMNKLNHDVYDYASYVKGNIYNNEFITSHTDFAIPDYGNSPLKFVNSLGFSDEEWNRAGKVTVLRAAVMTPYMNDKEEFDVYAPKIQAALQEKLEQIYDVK
# Di-ADC [3] = assay: Enzyme kinetics of Di-ADC with AMC substrates (fluorimetric assay); type: biochemical, Dirofilaria immitis; conditions: substrate 0.0016 to 0.2 mM, double-reciprocal plot
# Phe-DC [4] = assay: Enzyme kinetics of Phe-DC with AMC substrates (fluorimetric assay); type: biochemical; conditions: substrate 0.0016 to 0.2 mM, double-reciprocal plot
# Protocol: E. Enzyme kinetics, as measured by Michaelis constant (Km) and maximal velocity (Vmax), can be used to characterize the activity of an enzyme towards a given substrate under defined conditions. Enzymatic reactions were performed under the fluorimetric assay conditions described in Example 1 using Di-ADC and commercially prepared Phe-DC as the enzymes and H-Phe-AMC, H-Tyr-AMC and H-Trp-AMC as the substrates. One μL of purified adult Di-ADC, prepared as described in Example 2 through the gel filtration chromatography step, or 80 micro units (μU) (11.4 μg) of Phe-DC were incubated with each substrate at substrate concentrations ranging from 0.0016 to 0.2 mM. Each reaction was carried out in duplicate in PBS reaction buffer and monitored using the fluorimetric method described in Example 1. The values of apparent Km and Vm, of Di-ADC and Phe-DC for the substrates H-Phe-AMC, H-Tyr-AMC and H-Trp-AMC were calculated from a double-reciprocal plot of 1/v against 1/[substrate].
# Phe-DC [5] = assay: Inhibitor assay with commercially prepared Phe-DC as enzyme source; type: biochemical
# Tyr-DC = biological target: T2, Tyr-DC (Enterococcus faecalis, UniProt P0DTQ4); assay: Inhibitor assay with commercially prepared Tyr-DC as enzyme source; type: biochemical
# T2 sequence (P0DTQ4 1-620): T1 sequence (P0DTQ4 1-620)
# Di-ADC [6] = assay: Effect of inhibitors on cleavage of H-Phe-AMC by Di-ADC (D. immitis L3/L4 ES); type: biochemical, Dirofilaria immitis
# D. immitis L3 larvae = assay: Larval culture assay, molting of L3 larvae counted by shed cuticles; type: cell-based, Dirofilaria immitis
# Phe-DC [7] = assay: Formation of dopamine from dopa by Phe-DC; type: biochemical; conditions: 172 μU Phe-DC, 0.5 mM L-dopa, 37° C., 30 minutes
# Di-ADC [8] = assay: Formation of dopamine from dopa by Di-ADC; type: biochemical, Dirofilaria immitis; conditions: 10 μl Di-ADC, 0.5 mM L-dopa, 37° C., 30 minutes
# Phe-DC [9] = assay: Carbon dioxide release on decarboxylation of L-phenylalanine by Phe-DC (control reaction); type: biochemical; conditions: 375 U Phe-DC
# Di-ADC [10] = assay: Carbon dioxide release on decarboxylation of L-phenylalanine by Di-ADC (INFINITY CO2 kit); type: biochemical, Dirofilaria immitis; conditions: 5 mM L-phenylalanine, 37° C., 45 minutes
# [11] = compared with inhibition of Di-ADC
compound,measurement,setting,value
CSCC[C@H](N)C(=O)Nc1ccc2ccccc2c1 [H—Met—NHNap],D. immitis L3/L4 ES Activity (cleavage of substrate),D. immitis L3/L4 ES,No
Cc1cc(=O)oc2cc(NC(=O)[C@@H](N)CC(C)C)ccc12 [H—Leu—AMC],D. immitis L3/L4 ES Activity (cleavage of substrate),D. immitis L3/L4 ES,No
Cc1cc(=O)oc2cc(NC(=O)[C@@H](N)CCCN=C(N)N)ccc12 [H—Arg—AMC],D. immitis L3/L4 ES Activity (cleavage of substrate),D. immitis L3/L4 ES,No
Cc1cc(=O)oc2cc(NC(=O)[C@H](Cc3ccccc3)NC(=O)CCCC(=O)O)ccc12 [Glutaryl—Phe—AMC],D. immitis L3/L4 ES Activity (cleavage of substrate),D. immitis L3/L4 ES,No
Cc1cc(=O)oc2cc(NC(=O)[C@@H](N)Cc3c[nH]c4ccccc34)ccc12 [H—Trp—AMC],cleavage of substrate by Phe-DC,[1],cleave
same,cleavage of substrate by Tyr-DC,[2],cleave
same,Km,Di-ADC [3],29.1 µM
same,Vmax,Di-ADC [3],0.140 pmol/mg/min
same,D. immitis L3/L4 ES Activity (cleavage of substrate),D. immitis L3/L4 ES,Yes
same,Km,Phe-DC [4],22.9 µM
same,Vmax,Phe-DC [4],0.703 pmol/mg/min
Cc1cc(=O)oc2cc(NC(=O)[C@H](C)N)ccc12 [H—Ala—AMC],D. immitis L3/L4 ES Activity (cleavage of substrate),D. immitis L3/L4 ES,No
"O=C(O)c1cc[c]([Hg][Cl])cc1 [CMBA, p-chloromercuribenzoic acid]",inhibition of Phe-DC activity,Phe-DC [5],at levels similar to the level that each inhibited Di-ADC
same,inhibition of Tyr-DC activity,Tyr-DC,at levels similar to the level that each inhibited Di-ADC
"O=c1oc(Cl)c(Cl)c2ccccc12 [3,4-DCI, 3,4-Dichioroisocoumarin]",inhibition of Di-ADC activity relative to Phe-DC or Tyr-DC activity,Di-ADC [6]; comparison between enzymes,more strongly
same,sensitivity of the enzyme activity (H-Phe-AMC cleavage) to inhibitor,"Di-ADC [6]; inhibitor concentrations of Table II, pre-incubated 30 minutes at 37° C.",sensitive
same,% Inhibition of molting of L3 larvae,"D. immitis L3 larvae; 0.001 mM, 3 days culture",28.6%
same,% Inhibition of molting of L3 larvae,"D. immitis L3 larvae; 0.01 mM, 3 days culture",40.9%
same,% Inhibition of molting of L3 larvae,"D. immitis L3 larvae; 0.1 mM, 3 days culture",100%
same,inhibition of the molting process (in words),D. immitis L3 larvae; final concentration of 0.1 mM,completely inhibited the molting process
Cc1cc(=O)oc2cc(NC(=O)[C@@H](N)Cc3cnc[nH]3)ccc12 [H—His—AMC],D. immitis L3/L4 ES Activity (cleavage of substrate),D. immitis L3/L4 ES,No
"N[C@@H](Cc1ccc(O)c(O)c1)C(=O)O [dopa, L-dopa]",dopamine formed,Phe-DC [7],9.4 nmol
same,dopamine formed,Di-ADC [8],2.74 nmol
Cc1cc(=O)oc2cc(NC(=O)CN)ccc12 [H—Gly—AMC],D. immitis L3/L4 ES Activity (cleavage of substrate),D. immitis L3/L4 ES,No
Cc1cc(=O)oc2cc(NC(=O)[C@@H](N)Cc3ccc(O)cc3)ccc12 [H—Tyr—AMC],cleavage of substrate by Phe-DC,[1],cleave
same,cleavage of substrate by Tyr-DC,[2],cleave
same,Km,Di-ADC [3],35.1 µM
same,Vmax,Di-ADC [3],0.152 pmol/mg/min
same,D. immitis L3/L4 ES Activity (cleavage of substrate),D. immitis L3/L4 ES,Yes
same,Km,Phe-DC [4],72.3 µM
same,Vmax,Phe-DC [4],0.339 pmol/mg/min
"NCCc1c[nH]c2ccc(O)cc12 [5-HT, 5-hydroxytryptamine]",inhibition of Phe-DC activity,Phe-DC [5]; [11],at levels similar to the level that each inhibited Di-ADC
same,inhibition of Tyr-DC activity,Tyr-DC; [11],at levels similar to the level that each inhibited Di-ADC
N[C@@H](Cc1ccccc1)C(=O)O [L-phenylalanine],formation of CO2,Phe-DC [9],0.27 mM
same,formation of CO2,Di-ADC [10]; 5 μL Di-ADC,0.7 mM
same,formation of CO2,Di-ADC [10]; 10 μL Di-ADC,0.38 mM
same,formation of CO2,Di-ADC [10]; 20 μl Di-ADC,0.4 mM
Cl.NCCc1ccc(S(=O)(=O)F)cc1 [Pefabloc],sensitivity of the enzyme activity (H-Phe-AMC cleavage) to inhibitor,Di-ADC [6],sensitive
same,inhibition of Phe-DC activity,Phe-DC [5],at levels similar to the level that each inhibited Di-ADC
same,inhibition of Tyr-DC activity,Tyr-DC,at levels similar to the level that each inhibited Di-ADC
same,effect on molting (in words),D. immitis L3 larvae,no apparent effect on molting
same,effect on the molt (in words),D. immitis L3 larvae,inhibited the molt completely
same,inhibition of the molting process (in words),D. immitis L3 larvae,completely inhibited the molting process
N=C(N)c1ccc(CS(=O)(=O)F)cc1 [APMSF],% Inhibition of molting of L3 larvae,D. immitis L3 larvae,19.7% and 24.2% and 14.1%
same,inhibition of the molting of L3 to L4 (in words),D. immitis L3 larvae,unable to completely inhibit the molting
Cc1cc(=O)oc2cc(NC(=O)[C@@H](N)CCC(=O)O)ccc12 [H—Glu—AMC],D. immitis L3/L4 ES Activity (cleavage of substrate),D. immitis L3/L4 ES,No
Ala-Ala-Phe-{AMC},D. immitis L3/L4 ES Activity (cleavage of substrate),D. immitis L3/L4 ES,No
"O=S(=O)(F)Cc1ccccc1 [PMSF, Phenylmethane-7-sulfonyl fluoride]",inhibition of Di-ADC activity relative to Phe-DC or Tyr-DC activity,Di-ADC [6],more strongly
same,sensitivity of the enzyme activity (H-Phe-AMC cleavage) to inhibitor,Di-ADC [6],sensitive
same,% Inhibition of molting of L3 larvae,D. immitis L3 larvae,32.3% and 47.3% and 29.8%
same,inhibition of the molting of L3 to L4 (in words),D. immitis L3 larvae,unable to completely inhibit the molting
Cc1cc(=O)oc2cc(NC(=O)[C@@H]3CCCN3)ccc12 [H—Pro—AMC],D. immitis L3/L4 ES Activity (cleavage of substrate),D. immitis L3/L4 ES,No
Cc1cc(=O)oc2cc(NC(=O)[C@@H](N)Cc3ccccc3)ccc12 [H—Phe—AMC],cleavage of substrate by Phe-DC,[1],cleave
same,cleavage of substrate by Tyr-DC,[2],cleave
same,Km,Di-ADC [3],32.1 µM
same,Vmax,Di-ADC [3],0.234 pmol/mg/min
same,D. immitis L3/L4 ES Activity (cleavage of substrate),D. immitis L3/L4 ES,Yes
same,Km,Phe-DC [4],23.1 µM
same,Vmax,Phe-DC [4],0.619 pmol/mg/min
Cc1cc(=O)oc2cc(NC(=O)[C@@H](N)CCCCN)ccc12 [H—Lys—AMC],D. immitis L3/L4 ES Activity (cleavage of substrate),D. immitis L3/L4 ES,No
Cc1cc(=O)oc2cc(NC(=O)C(N)CO)ccc12 (stereo not shown) [H—Ser—AMC],D. immitis L3/L4 ES Activity (cleavage of substrate),D. immitis L3/L4 ES,No
